Assay results from patent US20240360165A1, “INHIBITORS OF CYCLIN DEPENDENT KINASE 7 (CDK7)” (Syros Pharmaceuticals, Inc., priority 2016, published 2024).
Like-named read-outs stand apart in the source and are kept apart here.

Legend:
CDK9/Cyclin T1 complex = CDK9/Cyclin T1 complex (Homo sapiens, UniProt P50750); test: CDK9 inhibition assay (Caliper/LabChip EZ Reader kinase assay); format: biochemical; settings: Table 1; CDK9/Cyclin T1 8 nM, ATP 2 mM, 15 min at 27° C.
In short: (§1)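 Caliper/LabChip EZ Reader mobility-shift assays. CDK9/Cyclin T1 at 8 nM with 2 μM 5-FAM-CDK9tide peptide and 10 mM MgCl2; CDK2/Cyclin E1 at 0.5 nM with 2 μM 5-FAM-CDK7tide and 2 mM MgCl2.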

[1] = target: T1, CDK12 (aa686-1082)/Cyclin K complex (Homo sapiens, UniProt Q9NYV4); test: CDK12 inhibition assay (Caliper/LabChip EZ Reader kinase assay); format: biochemical; settings: Table 1; CDK12 (aa686-1082)/Cyclin K 50 nM, ATP 2 mM, 3 hr at 27° C.
T1 construct: CDK12 (aa686-1082)/Cyclin K complex

HCC70 cells = test: Inhibition of proliferation of HCC70 cells (CyQUANT Direct Cell Proliferation Assay, 72 hour); format: cell-based, human; settings: read-out: Inhibition of Proliferation of HCC70 Cells (calculated IC50)
Experimental: HCC70 cells are a cell line derived from human triple negative breast cancer. […] Known CDK inhibitors dinaciclib or N-((1S,3R)-3-((5-chloro-4-(1H-indol-3-yl) pyrimidin-2-yl)amino)cyclohexyl)-5-((E)-4-(dimethylamino)but-2-enamido)picolinamide and triptolide were used as positive controls. […] The cells were cultured at 37° C. in a humidified chamber in the presence of 5% CO2. Proliferation assays were conducted over a 72 hour time period. CyQUANT® Direct Cell Proliferation Assay (Life Technologies, Chicago, IL USA) was used to assess the anti-proliferative effects of the compounds following manufacturer's directions and utilizing the reagents supplied with the CyQUANT® Direct Cell kit.

CDK2/Cyclin E1 complex = CDK2/Cyclin E1 complex (Homo sapiens, UniProt P24941); test: CDK2 inhibition assay (Caliper/LabChip EZ Reader kinase assay); format: biochemical; settings: Table 1; CDK2/Cyclin E1 0.5 nM, ATP 2 mM, 35 min at 27° C.
In short: as §1

[2] = target: CDK7/Cyclin H/MAT1 complex (Homo sapiens, UniProt P50613); test: CDK7 inhibition assay (Caliper/LabChip EZ Reader kinase assay); format: biochemical; settings: Table 1; CDK7/Cyclin H/MAT1 6 nM, ATP 2 mM, 35 min at 27° C.
In short: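 A Perkin Elmer Caliper/LabChip EZ Reader (Waltham, MA) platform served as the basis for this CDK7 kinase inhibition assay. The work was carried out by Biortus Biosciences, located in Jiangyin, Jiangsu Province, P.R. of China. Each CDK studied had its own kinase assay, and compounds were evaluated for their ability to block CDK7 activity.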

T1 sequence (Q9NYV4 686-1082, species assumed): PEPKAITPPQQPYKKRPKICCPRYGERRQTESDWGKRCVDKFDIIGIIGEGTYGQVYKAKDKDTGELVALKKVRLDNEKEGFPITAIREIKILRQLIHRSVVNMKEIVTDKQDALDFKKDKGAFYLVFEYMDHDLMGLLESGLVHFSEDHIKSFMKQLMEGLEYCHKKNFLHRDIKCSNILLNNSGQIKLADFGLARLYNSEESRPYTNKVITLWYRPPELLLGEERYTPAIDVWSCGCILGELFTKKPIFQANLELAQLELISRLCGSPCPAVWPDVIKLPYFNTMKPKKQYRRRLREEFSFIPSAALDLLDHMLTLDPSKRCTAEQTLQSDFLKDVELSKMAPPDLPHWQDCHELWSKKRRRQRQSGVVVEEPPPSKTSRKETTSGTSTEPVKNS
T1 sequence (O75909 whole entry partner, species assumed, the tested form may be a part): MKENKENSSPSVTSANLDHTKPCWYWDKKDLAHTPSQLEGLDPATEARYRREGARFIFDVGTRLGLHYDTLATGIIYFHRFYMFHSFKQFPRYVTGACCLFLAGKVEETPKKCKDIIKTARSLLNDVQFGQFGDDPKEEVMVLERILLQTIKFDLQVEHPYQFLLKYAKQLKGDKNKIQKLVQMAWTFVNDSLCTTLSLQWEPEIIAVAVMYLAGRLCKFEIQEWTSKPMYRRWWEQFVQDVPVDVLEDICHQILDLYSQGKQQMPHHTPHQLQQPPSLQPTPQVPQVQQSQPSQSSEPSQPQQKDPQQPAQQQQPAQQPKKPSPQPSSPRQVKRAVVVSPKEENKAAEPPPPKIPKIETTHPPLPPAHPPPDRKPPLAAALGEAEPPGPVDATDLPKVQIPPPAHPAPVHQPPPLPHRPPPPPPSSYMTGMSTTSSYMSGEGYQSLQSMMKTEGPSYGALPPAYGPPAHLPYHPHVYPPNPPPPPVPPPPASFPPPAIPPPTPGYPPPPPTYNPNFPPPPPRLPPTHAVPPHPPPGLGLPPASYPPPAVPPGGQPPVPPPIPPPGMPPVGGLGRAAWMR
Chain of CDK9/Cyclin T1 complex (P50750 whole entry, species assumed): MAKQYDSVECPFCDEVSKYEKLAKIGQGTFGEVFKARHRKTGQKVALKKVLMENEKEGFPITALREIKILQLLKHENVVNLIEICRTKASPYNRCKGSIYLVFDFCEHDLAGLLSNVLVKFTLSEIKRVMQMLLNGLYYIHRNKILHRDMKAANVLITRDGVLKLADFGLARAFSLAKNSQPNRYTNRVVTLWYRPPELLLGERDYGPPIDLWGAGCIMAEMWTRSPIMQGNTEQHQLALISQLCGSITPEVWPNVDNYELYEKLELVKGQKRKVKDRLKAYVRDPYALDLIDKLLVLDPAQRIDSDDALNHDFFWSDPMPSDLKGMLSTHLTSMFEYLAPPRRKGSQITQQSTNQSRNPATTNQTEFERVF
Chain of CDK9/Cyclin T1 complex (O60563 whole entry partner, species assumed): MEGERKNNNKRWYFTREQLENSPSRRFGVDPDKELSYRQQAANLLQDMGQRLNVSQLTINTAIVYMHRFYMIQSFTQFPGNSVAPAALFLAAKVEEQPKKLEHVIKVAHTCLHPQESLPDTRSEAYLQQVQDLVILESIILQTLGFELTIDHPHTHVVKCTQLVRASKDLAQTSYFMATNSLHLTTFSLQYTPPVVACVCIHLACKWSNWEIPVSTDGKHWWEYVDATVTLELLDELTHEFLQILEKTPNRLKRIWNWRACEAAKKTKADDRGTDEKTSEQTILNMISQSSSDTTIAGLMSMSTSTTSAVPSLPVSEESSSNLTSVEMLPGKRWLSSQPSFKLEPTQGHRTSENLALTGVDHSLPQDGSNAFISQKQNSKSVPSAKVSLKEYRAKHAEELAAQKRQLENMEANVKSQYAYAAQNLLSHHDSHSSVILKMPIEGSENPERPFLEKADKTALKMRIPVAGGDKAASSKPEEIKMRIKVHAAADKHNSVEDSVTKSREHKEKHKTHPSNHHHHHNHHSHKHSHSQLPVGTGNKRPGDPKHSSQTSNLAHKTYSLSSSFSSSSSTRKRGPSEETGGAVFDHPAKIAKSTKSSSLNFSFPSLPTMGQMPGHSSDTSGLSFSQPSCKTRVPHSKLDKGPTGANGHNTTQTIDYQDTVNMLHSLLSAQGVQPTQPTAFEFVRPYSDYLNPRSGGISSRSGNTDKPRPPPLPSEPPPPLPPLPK
Chain of CDK7/Cyclin H/MAT1 complex (P50613 whole entry, species assumed): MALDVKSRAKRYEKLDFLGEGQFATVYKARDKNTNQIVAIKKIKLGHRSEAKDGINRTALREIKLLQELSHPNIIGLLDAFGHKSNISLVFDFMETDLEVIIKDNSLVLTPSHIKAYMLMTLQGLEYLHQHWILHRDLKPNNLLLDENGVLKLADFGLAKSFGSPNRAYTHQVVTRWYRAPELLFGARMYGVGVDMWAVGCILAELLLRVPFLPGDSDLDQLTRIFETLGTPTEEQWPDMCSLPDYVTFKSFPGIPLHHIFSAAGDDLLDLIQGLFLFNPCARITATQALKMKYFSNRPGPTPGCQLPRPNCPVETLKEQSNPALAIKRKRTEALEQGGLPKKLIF
Chain of CDK7/Cyclin H/MAT1 complex (P51946 whole entry partner, species assumed): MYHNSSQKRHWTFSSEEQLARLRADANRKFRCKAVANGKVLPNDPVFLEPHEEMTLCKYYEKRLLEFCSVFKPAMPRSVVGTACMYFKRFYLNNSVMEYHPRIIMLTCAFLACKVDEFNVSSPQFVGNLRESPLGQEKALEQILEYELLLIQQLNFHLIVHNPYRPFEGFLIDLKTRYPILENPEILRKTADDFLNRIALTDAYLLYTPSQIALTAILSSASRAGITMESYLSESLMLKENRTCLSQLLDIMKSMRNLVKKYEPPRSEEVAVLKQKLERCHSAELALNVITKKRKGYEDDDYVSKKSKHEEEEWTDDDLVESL
Chain of CDK7/Cyclin H/MAT1 complex (P51948 whole entry partner, species assumed): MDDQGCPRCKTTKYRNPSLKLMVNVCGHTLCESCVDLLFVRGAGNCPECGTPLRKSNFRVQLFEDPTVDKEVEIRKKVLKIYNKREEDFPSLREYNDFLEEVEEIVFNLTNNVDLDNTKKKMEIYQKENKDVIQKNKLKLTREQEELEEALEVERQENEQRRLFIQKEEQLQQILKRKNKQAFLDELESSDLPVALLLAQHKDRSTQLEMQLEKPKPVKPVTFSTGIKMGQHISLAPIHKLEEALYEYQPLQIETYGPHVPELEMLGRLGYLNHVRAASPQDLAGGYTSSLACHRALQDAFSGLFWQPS

Compound	IC50 (CDK9/Cyclin T1 complex)	IC50 [1]	IC50 (CDK2/Cyclin E1 complex)	IC50 [2]	IC50 (HCC70 cells)	IC50 (HCC70 cells; Homo sapiens, HCC70, 72 h)
OCc1cccc(-c2ccc3c(-c4nc(N[C@H]5CCCNC5)ncc4C(F)(F)F)c[nH]c3c2)n1 [Compound 316]	> 5000 nM	200 to 5000 nM	200 to 5000 nM	< 20 nM	100 to 1000 nM	–
Cn1cc(-c2ccc3c(-c4nc(NC5CCCNC5)ncc4C(F)(F)F)c[nH]c3c2)ccc1=O (stereo not shown) [Compound 321]	> 5000 nM	200 to 5000 nM	> 5000 nM	< 20 nM	–	100 to 1000 nM
OCc1ncccc1-c1ccc2c(-c3nc(N[C@H]4CCCNC4)ncc3C(F)(F)F)c[nH]c2c1 [Compound 323]	> 5000 nM	200 to 5000 nM	200 to 5000 nM	< 20 nM	100 to 1000 nM	–
CC(=O)NCc1cccc(-c2ccc3c(-c4nc(N[C@H]5CCCNC5)ncc4C(F)(F)F)c[nH]c3c2)c1 [Compound 338]	200 to 5000 nM	200 to 5000 nM	200 to 5000 nM	20 to 200 nM	100 to 1000 nM	–
FC(F)(F)c1cnc(N[C@H]2CCCNC2)nc1-c1c[nH]c2cc(-c3ccnc4ccccc34)ccc12 [Compound 339]	> 5000 nM	200 to 5000 nM	> 5000 nM	20 to 200 nM	1000 to 5000 nM	–
FC(F)(F)c1cnc(N[C@H]2CCCNC2)nc1-c1c[nH]c2cc(-c3ccc4c(c3)OCCO4)ccc12 [Compound 342]	> 5000 nM	200 to 5000 nM	> 5000 nM	20 to 200 nM	1000 to 5000 nM	–
FC(F)(F)c1cnc(N[C@H]2CCCNC2)nc1-c1c[nH]c2cc(-c3ccc4ncsc4c3)ccc12 [Compound 343]	200 to 5000 nM	200 to 5000 nM	200 to 5000 nM	20 to 200 nM	100 to 1000 nM	–
FC(F)(F)c1cnc(N[C@H]2CCCNC2)nc1-c1c[nH]c2cc(-c3cccc4cnccc34)ccc12 [Compound 344]	> 5000 nM	200 to 5000 nM	200 to 5000 nM	20 to 200 nM	100 to 1000 nM	–
Fc1cccc(-c2ccc3c(-c4nc(N[C@H]5CCCNC5)ncc4C(F)(F)F)c[nH]c3c2)c1 [Compound 345]	> 5000 nM	> 5000 nM	> 5000 nM	200 to 5000 nM	–	1000 to 5000 nM
CC1(C)CC[C@H](Nc2ncc(C(F)(F)F)c(-c3c[nH]c4cc(C#N)ccc34)n2)CN1 [Compound 350, (S)-3-(2-((6,6-dimethylpiperidin-3-yl)amino)-5-(trifluoromethyl)pyrimidin-4-yl)-1H-indole-6-carbonitrile]	> 5000 nM	200 to 5000 nM	> 5000 nM	20 to 200 nM	–	100 to 1000 nM
CP(C)(=O)c1cccc2c(-c3nc(N[C@H]4CCCNC4)ncc3C(F)(F)F)c[nH]c12 [Compound 352, (S)-dimethyl(3-(2-(piperidin-3-ylamino)-5-(trifluoromethyl)pyrimidin-4-yl)-1H-indol-7-yl)phosphine oxide]	> 5000 nM	> 5000 nM	> 5000 nM	> 5000 nM	–	1000 to 5000 nM
CP(C)(=O)c1ccc2c(-c3nc(N[C@H]4CCCNC4)ncc3C(F)(F)F)c[nH]c2c1 [Compound 354]	> 5000 nM	200 to 5000 nM	> 5000 nM	20 to 200 nM	–	1000 to 5000 nM
N#Cc1ccc2c(-c3nc(N[C@@H]4CNCC[C@H]4O)ncc3C(F)(F)F)c[nH]c2c1 [Compound 355]	> 5000 nM	200 to 5000 nM	> 5000 nM	20 to 200 nM	–	100 to 1000 nM
CCc1cnc(N[C@H]2CCCNC2)nc1-c1c[nH]c2c(S(=O)(=O)C(C)C)cccc12 [Compound 356]	> 5000 nM	> 5000 nM	> 5000 nM	20 to 200 nM	100 to 1000 nM	–
Cc1noc([C@H]2CC[C@H](Nc3ncc(C(F)(F)F)c(-c4c[nH]c5cc(C#N)ccc45)n3)CN2)n1 [Compound 358]	> 5000 nM	> 5000 nM	> 5000 nM	20 to 200 nM	–	100 to 1000 nM

Now from value to compound, other results behind:

IC50 (CDK9/Cyclin T1 complex)	IC50 [1]	IC50 (CDK2/Cyclin E1 complex)	IC50 [2]	Compound	IC50 (HCC70 cells)	IC50 (HCC70 cells; Homo sapiens, HCC70, 72 h)
200 to 5000 nM	200 to 5000 nM	200 to 5000 nM	< 20 nM	OCc1cncc(-c2ccc3c(-c4nc(N[C@H]5CCCNC5)ncc4C(F)(F)F)c[nH]c3c2)c1 [Compound 318]	100 to 1000 nM	–
200 to 5000 nM	200 to 5000 nM	200 to 5000 nM	< 20 nM	FC(F)(F)c1cnc(N[C@H]2CCCNC2)nc1-c1c[nH]c2cc(-c3cnccn3)ccc12 [Compound 328]	< 100 nM	–
200 to 5000 nM	200 to 5000 nM	200 to 5000 nM	< 20 nM	Cc1noc(C)c1-c1ccc2c(-c3nc(N[C@H]4CCCNC4)ncc3C(F)(F)F)c[nH]c2c1 [Compound 330]	< 100 nM	–
200 to 5000 nM	200 to 5000 nM	200 to 5000 nM	< 20 nM	FC(F)(F)c1cnc(N[C@H]2CCCNC2)nc1-c1c[nH]c2cc(-c3nccs3)ccc12 [Compound 332]	< 100 nM	–
200 to 5000 nM	200 to 5000 nM	200 to 5000 nM	20 to 200 nM	O=C1CCc2ccc(-c3ccc4c(-c5nc(N[C@H]6CCCNC6)ncc5C(F)(F)F)c[nH]c4c3)cc2N1 [Compound 334]	100 to 1000 nM	–
200 to 5000 nM	200 to 5000 nM	200 to 5000 nM	< 20 nM	Cc1ccncc1-c1ccc2c(-c3nc(NC4CCCNC4)ncc3C(F)(F)F)c[nH]c2c1 (stereo not shown) [Compound 336]	–	< 100 nM
200 to 5000 nM	200 to 5000 nM	200 to 5000 nM	20 to 200 nM	CC(C)S(=O)(=O)c1ccc2c(-c3nc(N[C@H]4CCCNC4)ncc3C(F)(F)F)c[nH]c2c1 [Compound 346, 4-(6-isopropylsulfonyl-1H-indol-3-yl)-N-[(3S)-3-piperidyl]-5-(trifluoromethyl) pyrimidin-2-amine]	–	100 to 1000 nM
200 to 5000 nM	200 to 5000 nM	200 to 5000 nM	< 20 nM	O=C(c1ccc2c(-c3nc(N[C@H]4CCCNC4)ncc3C(F)(F)F)c[nH]c2c1)N1C[C@@H](O)C(F)(F)C1 [Compound 349, [(4R)-3,3-difluoro-4-hydroxy-pyrrolidin-1-yl]-[3-[2-[[(3S)-3-piperidyl]amino]-5-(trifluoromethyl)pyrimidin-4-yl]-1H-indol-6-yl] methanone]	–	100 to 1000 nM
200 to 5000 nM	200 to 5000 nM	200 to 5000 nM	< 20 nM	N#Cc1ccc2c(-c3nc(N[C@@H]4CNCC[C@H]4F)ncc3C(F)(F)F)c[nH]c2c1 [Compound 351]	–	< 100 nM
200 to 5000 nM	200 to 5000 nM	200 to 5000 nM	< 20 nM	CN(C)S(=O)(=O)c1ccc2c(-c3nc(N[C@H]4CCCNC4)ncc3C(F)(F)F)c[nH]c2c1 [Compound 357, N,N-dimethyl-3-[2-[[(3S)-3-piperidyl]amino]-5-(trifluoromethyl)pyrimidin-4-yl]-1H-indole-6-sulfonamide]	–	1000 to 5000 nM
200 to 5000 nM	200 to 5000 nM	200 to 5000 nM	< 20 nM	CC(=O)c1ccc2c(-c3nc(N[C@H]4CCCNC4)ncc3C(F)(F)F)c[nH]c2c1 [Compound 359, 1-[3-[2-[[(3S)-3-piperidyl]amino]-5-(trifluoromethyl)pyrimidin-4-yl]-1H-indol-6-yl]ethanone]	–	< 100 nM
